The text below walks through data of patent US12344623B2, “Thiazolopyridine derivatives as adenosine receptor antagonists” (Merck Patent GmbH, priority 2019, dated 2025).

Where two headings read alike, the source gives them in different places.

Holding throughout (type): cell-based
The target in assay [1] is T1, human A2A receptor (Homo sapiens, UniProt P29274). As to the kind of experiment: Human T cells, endogenous A2A receptor, cAMP, agonist NECA. The conditions noted are these: read-out: hTcell data, cAMP, IC50. How it is done: The endogenous functional activity of the Gs-coupled human A2A receptor was measured in T cells, where this receptor is highly expressed. Determination of receptor activity was done by quantification of cAMP, which is a second messenger for adenosine receptors.
In short, human pan T cells were isolated from human PBMC (MACS Pan T Cell Isolation Kit, Miltenyi Biotec) that have been derived from fresh whole blood. The T cells were seeded in 384-well microtiter plates and treated with test compounds. […] Finally, HTRF reagents (cAMP Femto Kit, CisBio) were added to the wells, and after 1 h cellular cAMP levels were determined using the ENVISION (Perkin Elmer) plate reader.
The obtained raw data were normalized against the inhibitor control and the neutral control (DMSO) and the normalized data were fitted using Genedata Screener software.

Assay [2] concerns the target T1, human A2A receptor. As to the kind of experiment: Functional A2A receptor activity, recombinant HEK293 cells, cAMP (HTRF), agonist NECA. The arrangement: expressed in transfected cells; host or cells: HEK293. The method in brief:
(§1)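 Intracellular cAMP, the adenosine receptor second messenger, is measured by HTRF following 30 min co-incubation with forskolin, agonist and test compound. Normalization uses DMSO as the neutral control and an inhibitor as the reference control. Fitted curves yield the values.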

For another assay, the target named is T2, human A1 receptor (Homo sapiens, UniProt P30542).
T2 construct: expressed in transfected cells; host or cells: CHO
T2 sequence (P30542 1-326): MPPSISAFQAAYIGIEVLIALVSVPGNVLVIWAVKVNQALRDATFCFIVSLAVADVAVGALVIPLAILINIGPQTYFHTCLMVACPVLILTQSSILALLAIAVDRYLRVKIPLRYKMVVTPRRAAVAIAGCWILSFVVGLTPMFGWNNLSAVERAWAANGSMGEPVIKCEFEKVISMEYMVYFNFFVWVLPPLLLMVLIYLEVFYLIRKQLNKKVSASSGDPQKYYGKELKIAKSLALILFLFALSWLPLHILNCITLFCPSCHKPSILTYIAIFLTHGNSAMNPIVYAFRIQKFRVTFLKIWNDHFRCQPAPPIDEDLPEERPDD
As to the kind of experiment: Functional A1 receptor activity, recombinant CHO cells, cAMP (HTRF), forskolin, agonist CPA. The method in brief:
(§2)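 Normalized HTRF cAMP signals (inhibitor and DMSO controls as references) were curve-fitted; assays used forskolin-stimulated CHO cells with A1 or A3, agonist CPA or IB-MECA respectively, 30 min compound incubation.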

Another assay addresses T3, human A3 receptor (Homo sapiens, UniProt P0DMS8).
T3 construct: expressed in transfected cells; host or cells: CHO
T3 sequence (P0DMS8 1-318): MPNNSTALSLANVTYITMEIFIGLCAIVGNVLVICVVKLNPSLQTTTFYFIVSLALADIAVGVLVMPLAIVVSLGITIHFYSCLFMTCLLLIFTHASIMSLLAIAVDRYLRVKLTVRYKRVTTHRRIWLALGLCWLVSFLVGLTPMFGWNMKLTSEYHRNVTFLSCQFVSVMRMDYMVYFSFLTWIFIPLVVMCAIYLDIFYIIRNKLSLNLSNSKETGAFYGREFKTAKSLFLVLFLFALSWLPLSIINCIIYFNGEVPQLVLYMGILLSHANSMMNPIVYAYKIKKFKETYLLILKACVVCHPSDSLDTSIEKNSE
As to the kind of experiment: Functional A3 receptor activity, recombinant CHO cells, cAMP (HTRF), forskolin, agonist IB-MECA. The method in brief: as §2

A further assay deals with T4, human A2B receptor (Homo sapiens, UniProt P29275).
T4 construct: expressed in transfected cells; host or cells: HEK293
T4 sequence (P29275 1-332): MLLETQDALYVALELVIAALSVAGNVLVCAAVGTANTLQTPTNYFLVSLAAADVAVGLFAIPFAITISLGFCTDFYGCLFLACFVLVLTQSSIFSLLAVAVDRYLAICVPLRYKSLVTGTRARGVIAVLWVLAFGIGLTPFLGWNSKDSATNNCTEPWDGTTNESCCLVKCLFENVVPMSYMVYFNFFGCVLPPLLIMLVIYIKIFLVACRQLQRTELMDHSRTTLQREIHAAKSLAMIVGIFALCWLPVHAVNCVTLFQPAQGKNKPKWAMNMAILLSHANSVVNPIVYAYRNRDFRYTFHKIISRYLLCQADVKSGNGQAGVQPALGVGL
As to the kind of experiment: Functional A2B receptor activity, recombinant HEK293 cells, cAMP (HTRF), agonist NECA. In a few lines: as §1

Where [3] appears, read: read-out: Functional A2A receptor activity, HEK293, cAMP, IC50.
The mark [4] stands for this setting: recombinant CHO cells, forskolin, agonist CPA, read-out: Functional A1 receptor activity, CHO, cAMP, IC50.
[5] abbreviates: recombinant CHO cells, forskolin, agonist IB-MECA, read-out: Functional A3 receptor activity, CHO, cAMP, IC50.
Setting [6] is: read-out: Functional A2B receptor activity, HEK293, cAMP, IC50.

T1 sequence (P29274 whole entry): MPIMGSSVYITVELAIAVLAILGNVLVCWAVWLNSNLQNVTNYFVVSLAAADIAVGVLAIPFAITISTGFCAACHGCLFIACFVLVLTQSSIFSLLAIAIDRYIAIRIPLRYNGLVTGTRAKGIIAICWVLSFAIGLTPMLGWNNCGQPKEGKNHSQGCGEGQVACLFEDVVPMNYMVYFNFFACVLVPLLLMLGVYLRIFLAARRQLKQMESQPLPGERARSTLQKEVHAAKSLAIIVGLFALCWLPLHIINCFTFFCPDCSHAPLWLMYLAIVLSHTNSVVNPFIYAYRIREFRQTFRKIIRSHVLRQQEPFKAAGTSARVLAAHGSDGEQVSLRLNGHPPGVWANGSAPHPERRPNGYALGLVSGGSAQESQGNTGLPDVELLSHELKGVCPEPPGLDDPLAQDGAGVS

Consider `COc1cnc(N2CCOCC2)c2sc(NC(=O)N3CCCCC3)nc12` [drawing 222], for which the IC50 on human A2A receptor [1] was less than 1 µM.
Regarding `COc1cnc(N2CCOCC2)c2sc(NC(=O)N3CCC4(CCN(C)C4=O)CC3)nc12` [drawing 215], at human A2A receptor [1], the IC50 was less than 1 µM.
Turning to `COc1ccc(N2CCOCC2)c2sc(NC(=O)N3CCC4(CCCO4)CC3)nc12` [drawing 219], at human A2A receptor [1], the IC50 is less than 1 µM.
In the case of `COc1nc(F)c(C2CCOCC2)c2sc(NC(=O)N3CCC4(CCOC4)C3)nc12` (stereo not shown) [Compound 33, N-[6-fluoro-4-methoxy-7-(oxan-4-yl)-[1,3]thiazolo[4,5-c]pyridin-2-yl]-2-oxa-7-azaspiro[4.4]nonane-7-carboxamide], the IC50 is less than 0.01 µM at human A2A receptor [2] (setting [3]), greater than 1 µM on human A1 receptor (setting [4]), greater than 1 µM on human A3 receptor (setting [5]) and less than 0.1 µM on human A2B receptor (setting [6]).
Take `COc1ncc(C2=CCOCC2)c2sc(NC(=O)N3CC[C@@]4(CCCNC4)C3)nc12` [Compound 121, (R)-2,7-Diaza-spiro[4.5]decane-2-carboxylic acid [7-(3,6-dihydro-2H-pyran-4-yl)-4-methoxy-thiazolo[4,5-c]pyridin-2-yl]-amide]: the 50% inhibitory concentration (IC50) at human A2A receptor [2] (setting [3]) was less than 0.01 µM; on human A1 receptor (setting [4]), greater than 1 µM; on human A3 receptor (setting [5]), greater than 1 µM; at human A2B receptor (setting [6]) it was less than 0.1 µM.
For the molecule `COc1ncc(C2=CCOCC2)c2sc(NC(=O)c3cnc4ccccn34)nc12` [Compound 135, Imidazo[1,2-a]pyridine-3-carboxylic acid [7-(3,6-dihydro-2H-pyran-4-yl)-4-methoxy-thiazolo[4,5-c]pyridin-2-yl]-amide], the IC50 at human A2A receptor [2] (setting [3]) was less than 0.01 µM; at human A1 receptor (setting [4]) it was less than 1 µM; at human A3 receptor (setting [5]), less than 1 µM; at human A2B receptor (setting [6]) it was less than 0.01 µM.
Consider `COc1ccc(C2CCOCC2)c2sc(NC(=O)N3CCC4(CC3)OCCO4)nc12` [reference compound], for which the 50% inhibitory concentration (IC50) is less than 0.01 µM on human A2A receptor [2], greater than 1 µM at human A1 receptor, greater than 1 µM on human A3 receptor and less than 1 µM on human A2B receptor.
Take `COc1cnc(N2CCOCC2)c2sc(NC(=O)N3CCOCC3)nc12` [drawing 193, reference compound]: the half-inhibitory concentration (IC50) is less than 0.01 µM at human A2A receptor [2] (setting [3]); greater than 1 µM on human A1 receptor (recombinant CHO cells, forskolin, agonist CPA, cAMP, read-out: Functional A1 receptor activity, CHO, cAMP, IC50); less than 1 µM at human A3 receptor (recombinant CHO cells, forskolin, agonist IB-MECA, cAMP, read-out: Functional A3 receptor activity, CHO, cAMP, IC50); less than 1 µM on human A2B receptor (setting [6]).
For the molecule `COc1ncc(C2=CCOC2)c2sc(NC(=O)N3CCC4(CCOCC4)C3)nc12` [Compound 44, N-[7-(2,5-dihydrofuran-3-yl)-4-methoxy-[1,3]thiazolo[4,5-c]pyridin-2-yl]-8-oxa-2-azaspiro[4.5]decane-2-carboxamide], the IC50 was less than 0.1 µM on human A2A receptor [2] (setting [3]), greater than 1 µM at human A1 receptor (setting [4]), greater than 1 µM at human A3 receptor (setting [5]) and less than 0.1 µM on human A2B receptor (setting [6]).
For the molecule `COc1ncc(-c2ccc(C)s2)c2sc(NC(=O)N3CCC4(CCOCC4)C3)nc12` [Compound 113, 8-Oxa-2-aza-spiro[4.5]decane-2-carboxylic acid [4-methoxy-7-(5-methyl-thiophen-2-yl)-thiazolo[4,5-c]pyridin-2-yl]-amide], the IC50 on human A2A receptor [2] (setting [3]) was less than 0.01 µM; on human A1 receptor (setting [4]), greater than 1 µM; at human A3 receptor (setting [5]), greater than 1 µM; at human A2B receptor (setting [6]) it was less than 0.1 µM.
On to `COc1ncc(-c2ccccc2)c2sc(NC(=O)c3ccc(-c4nnn[nH]4)cc3)nc12` [Compound 110, N-{4-methoxy-7-phenyl-[1,3]thiazolo[4,5-c]pyridin-2-yl}-4-(1H-1,2,3,4-tetrazol-5-yl)benzamide], for which the IC50 at human A2A receptor [2] (setting [3]) is less than 0.01 µM; at human A1 receptor (setting [4]), greater than 1 µM; at human A3 receptor (setting [5]) it was greater than 1 µM; at human A2B receptor (setting [6]), less than 0.1 µM.
On to `COc1ncc(C2=CCOC2)c2sc(NC(=O)c3c[nH]cn3)nc12` [Compound 43, N-[7-(2,5-dihydrofuran-3-yl)-4-methoxy-[1,3]thiazolo[4,5-c]pyridin-2-yl]-1H-imidazole-4-carboxamide], for which the IC50 on human A2A receptor [2] (setting [3]) was less than 0.01 µM; on human A1 receptor (setting [4]), less than 1 µM; at human A3 receptor (setting [5]) it was greater than 1 µM; on human A2B receptor (setting [6]) it was less than 0.1 µM.
Turning to `COc1ncc(C2=CCOCC2)c2sc(NC(=O)N3CCC(C(N)=O)CC3)nc12` [Compound 106, N1-[7-(3,6-dihydro-2H-pyran-4-yl)-4-methoxy-[1,3]thiazolo[4,5-c]pyridin-2-yl]piperidine-1,4-dicarboxamide], the IC50 is less than 0.01 µM at human A2A receptor [2] (setting [3]), less than 1 µM on human A1 receptor (setting [4]), greater than 1 µM at human A3 receptor (setting [5]) and less than 0.1 µM on human A2B receptor (setting [6]).
As for `COc1ncc(C2=CCOCC2)c2sc(NC(=O)Nc3ccc(N4N=C(C)CC4=O)cc3)nc12` [Compound 94, 3-[7-(3,6-dihydro-2H-pyran-4-yl)-4-methoxy-[1,3]thiazolo[4,5-c]pyridin-2-yl]-1-[4-(3-methyl-5-oxo-4,5-dihydro-1H-pyrazol-1-yl)phenyl]urea], the IC50 at human A2A receptor [2] (setting [3]) was less than 0.01 µM; at human A1 receptor (setting [4]), greater than 1 µM; at human A3 receptor (setting [5]) it was greater than 1 µM; at human A2B receptor (setting [6]), less than 0.1 µM.
With `COc1ncc(-c2ccc(F)c(O)c2)c2sc(NC(=O)N3CCC4(CCOCC4)C3)nc12` [Compound 149, 8-Oxa-2-aza-spiro[4.5]decane-2-carboxylic acid [7-(4-fluoro-3-hydroxy-phenyl)-4-methoxy-thiazolo[4,5-c]pyridin-2-yl]-amide], the IC50 at human A2A receptor [2] (setting [3]) is less than 0.01 µM; on human A1 receptor (setting [4]) it was less than 1 µM; at human A3 receptor (setting [5]), greater than 1 µM; at human A2B receptor (setting [6]) it was less than 0.01 µM.
Regarding `COc1ncc(-c2cccc(NCc3cocn3)c2)c2sc(NC(=O)N3CCC4(CCOCC4)C3)nc12` [Compound 166, 8-Oxa-2-aza-spiro[4.5]decane-2-carboxylic acid (4-methoxy-7-{3-[(oxazol-4-ylmethyl)-amino]-phenyl}-thiazolo[4,5-c]pyridin-2-yl)-amide], the IC50 at human A2A receptor [2] (setting [3]) is less than 0.01 µM; on human A1 receptor (setting [4]) it was greater than 1 µM; at human A3 receptor (setting [5]), greater than 1 µM; at human A2B receptor (setting [6]), less than 0.1 µM.
With `COc1nc(F)c(C2CCOCC2)c2sc(NC(=O)C3CC3)nc12` [Compound 28, Cyclopropanecarboxylic acid [6-fluoro-4-methoxy-7-(tetrahydro-pyran-4-yl)-thiazolo[4,5-c]pyridin-2-yl]-amide], the half-inhibitory concentration (IC50) at human A2A receptor [2] (setting [3]) was less than 0.01 µM; on human A1 receptor (setting [4]) it was less than 1 µM; on human A3 receptor (setting [5]) it was less than 1 µM; on human A2B receptor (setting [6]) it was less than 0.1 µM.
As for `COc1ncc(-c2cnn(Cc3ccncc3)c2)c2sc(NC(=O)N3CCC4(CCOCC4)C3)nc12` [Compound 75, 8-Oxa-2-aza-spiro[4.5]decane-2-carboxylic acid [4-methoxy-7-(1-pyridin-4-ylmethyl-1H-pyrazol-4-yl)-thiazolo[4,5-c]pyridin-2-yl]-amide], the IC50 on human A2A receptor [2] (setting [3]) was less than 0.01 µM; at human A1 receptor (setting [4]), greater than 1 µM; on human A3 receptor (setting [5]), greater than 1 µM; on human A2B receptor (setting [6]), less than 0.1 µM.
Turning to `COc1ncc(-c2ccnc(N)c2)c2sc(NC(=O)N3CCC4(CCOCC4)C3)nc12` [Compound 124, 8-Oxa-2-aza-spiro[4.5]decane-2-carboxylic acid [7-(2-amino-pyridin-4-yl)-4-methoxy-thiazolo[4,5-c]pyridin-2-yl]-amide], the half-inhibitory concentration (IC50) was less than 0.01 µM at human A2A receptor [2] (setting [3]), greater than 1 µM at human A1 receptor (setting [4]), greater than 1 µM on human A3 receptor (setting [5]) and less than 0.01 µM at human A2B receptor (setting [6]).
